From BindingDB's records for doi:10.1016/s0006-2952(97)00433-4 (Tokyo Dental College, 1998)
Several values for one entry are separate records, joined by “and”; a condition that tells them apart may be missing. Equal entries are not always repeated.

Target: Gamma-aminobutyric acid receptor subunit alpha-1 (Rattus norvegicus, UniProt P62813)
Sequence (P62813 whole entry): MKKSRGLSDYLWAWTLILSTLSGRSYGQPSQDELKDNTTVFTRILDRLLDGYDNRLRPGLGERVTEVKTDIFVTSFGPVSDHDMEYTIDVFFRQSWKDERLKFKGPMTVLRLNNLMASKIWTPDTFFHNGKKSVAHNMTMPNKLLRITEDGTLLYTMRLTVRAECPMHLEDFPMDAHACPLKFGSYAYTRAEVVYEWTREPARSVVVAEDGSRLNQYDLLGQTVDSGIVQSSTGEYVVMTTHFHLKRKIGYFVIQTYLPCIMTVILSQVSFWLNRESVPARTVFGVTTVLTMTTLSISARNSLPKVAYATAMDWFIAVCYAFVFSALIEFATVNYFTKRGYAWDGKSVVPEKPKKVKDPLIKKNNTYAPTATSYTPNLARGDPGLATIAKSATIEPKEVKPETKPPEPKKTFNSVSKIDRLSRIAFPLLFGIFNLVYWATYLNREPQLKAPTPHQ

| Structure (SMILES) | Ki |
| --- | --- |
| CCOC(=O)c1cc2c(cn1)[nH]c1ccccc12 | 2920 nM |
| OCCN(CCO)c1nc(N2CCCCC2)c2nc(N(CCO)CCO)nc(N3CCCCC3)c2n1 [Dipyridamine] | 87.9 nM and 162 nM |
